The values that follow are results of earlier work, collected in patent EP1227812B1 (SCHERING CORPORATION, priority 1999, dated 2001).

Structures are written as SMILES.

For this series the following is noted: eight subjects tested, topical azatadine.

On to `CN1CCC(=C2c3ccccc3CCc3cccnc32)CC1` [Azatadine, azatadine], for which the drowsiness entry was “drowsiness in one of the eight subjects tested”.
